From ChEMBL document CHEMBL1150977, “A quantitative analysis of kinase inhibitor selectivity” (Nat Biotechnol, 2008)

Columns and labels:
[1] = biological target: Mitogen-activated protein kinase kinase kinase 11 (Homo sapiens, UniProt Q16584)
[2] = biological target: T1, MAP kinase-activated protein kinase 5 (Homo sapiens, UniProt Q8IW41)
T1 sequence (Q8IW41 whole entry): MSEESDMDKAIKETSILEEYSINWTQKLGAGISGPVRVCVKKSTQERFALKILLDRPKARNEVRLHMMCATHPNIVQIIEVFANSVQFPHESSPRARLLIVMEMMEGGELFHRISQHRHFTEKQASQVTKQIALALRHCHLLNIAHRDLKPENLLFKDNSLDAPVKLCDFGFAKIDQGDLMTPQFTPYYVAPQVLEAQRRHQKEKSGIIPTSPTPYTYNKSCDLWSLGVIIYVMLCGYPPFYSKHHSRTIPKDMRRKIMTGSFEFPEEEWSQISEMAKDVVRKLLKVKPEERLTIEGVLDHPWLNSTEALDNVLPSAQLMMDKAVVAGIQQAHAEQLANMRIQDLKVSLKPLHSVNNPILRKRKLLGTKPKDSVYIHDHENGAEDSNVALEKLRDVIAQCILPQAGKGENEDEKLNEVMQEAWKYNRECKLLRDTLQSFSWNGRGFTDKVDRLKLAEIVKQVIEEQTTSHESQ

[3] = biological target: Mitogen-activated protein kinase kinase kinase kinase 4 (Homo sapiens, UniProt O95819)
[4] = biological target: Myosin light chain kinase, smooth muscle (Homo sapiens, UniProt Q15746)
[5] = biological target: TGF-beta receptor type-2 (Homo sapiens, UniProt P37173)
[6] = biological target: T2, Serine/threonine-protein kinase 17B (Homo sapiens, UniProt O94768)
T2 sequence (O94768 whole entry): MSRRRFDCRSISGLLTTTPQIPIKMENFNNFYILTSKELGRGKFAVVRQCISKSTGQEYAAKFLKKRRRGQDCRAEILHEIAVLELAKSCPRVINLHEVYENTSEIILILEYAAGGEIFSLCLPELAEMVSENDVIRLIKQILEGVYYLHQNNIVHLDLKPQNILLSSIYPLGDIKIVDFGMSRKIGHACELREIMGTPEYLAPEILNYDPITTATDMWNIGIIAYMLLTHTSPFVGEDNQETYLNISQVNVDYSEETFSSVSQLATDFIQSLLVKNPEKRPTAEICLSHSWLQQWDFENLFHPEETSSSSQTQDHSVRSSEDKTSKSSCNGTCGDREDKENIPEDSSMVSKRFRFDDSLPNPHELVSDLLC

[7] = biological target: Serine/threonine-protein kinase MRCK gamma (Homo sapiens, UniProt Q6DT37)
[8] = biological target: Glycogen synthase kinase-3 beta (Homo sapiens, UniProt P49841)
[9] = biological target: Proto-oncogene tyrosine-protein kinase Src (Homo sapiens, UniProt P12931)
[10] = biological target: High affinity nerve growth factor receptor (Homo sapiens, UniProt P04629)
[11] = biological target: T3, Receptor-interacting serine/threonine-protein kinase 1 (Homo sapiens, UniProt Q13546)
T3 sequence (Q13546 whole entry): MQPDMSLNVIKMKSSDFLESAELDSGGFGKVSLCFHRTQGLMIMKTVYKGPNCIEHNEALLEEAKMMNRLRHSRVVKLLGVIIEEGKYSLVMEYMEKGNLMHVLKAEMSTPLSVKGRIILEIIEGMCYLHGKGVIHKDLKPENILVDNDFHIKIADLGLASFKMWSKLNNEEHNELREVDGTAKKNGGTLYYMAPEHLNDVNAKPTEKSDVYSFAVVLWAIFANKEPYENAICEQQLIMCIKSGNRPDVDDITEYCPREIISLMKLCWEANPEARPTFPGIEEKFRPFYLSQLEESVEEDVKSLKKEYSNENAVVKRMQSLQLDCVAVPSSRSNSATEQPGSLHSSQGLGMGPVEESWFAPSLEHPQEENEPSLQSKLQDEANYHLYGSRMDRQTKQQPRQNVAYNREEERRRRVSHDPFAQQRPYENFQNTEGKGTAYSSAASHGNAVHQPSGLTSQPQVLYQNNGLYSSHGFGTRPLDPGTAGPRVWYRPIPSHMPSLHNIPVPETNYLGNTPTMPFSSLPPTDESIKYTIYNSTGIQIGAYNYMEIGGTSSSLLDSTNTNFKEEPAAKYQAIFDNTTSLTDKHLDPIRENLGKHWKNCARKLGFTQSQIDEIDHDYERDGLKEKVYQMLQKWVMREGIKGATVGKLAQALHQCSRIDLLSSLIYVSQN

[12] = biological target: Bone morphogenetic protein receptor type-1A (Homo sapiens, UniProt P36894)

Sequence of Glycogen synthase kinase-3 beta (P49841 whole entry): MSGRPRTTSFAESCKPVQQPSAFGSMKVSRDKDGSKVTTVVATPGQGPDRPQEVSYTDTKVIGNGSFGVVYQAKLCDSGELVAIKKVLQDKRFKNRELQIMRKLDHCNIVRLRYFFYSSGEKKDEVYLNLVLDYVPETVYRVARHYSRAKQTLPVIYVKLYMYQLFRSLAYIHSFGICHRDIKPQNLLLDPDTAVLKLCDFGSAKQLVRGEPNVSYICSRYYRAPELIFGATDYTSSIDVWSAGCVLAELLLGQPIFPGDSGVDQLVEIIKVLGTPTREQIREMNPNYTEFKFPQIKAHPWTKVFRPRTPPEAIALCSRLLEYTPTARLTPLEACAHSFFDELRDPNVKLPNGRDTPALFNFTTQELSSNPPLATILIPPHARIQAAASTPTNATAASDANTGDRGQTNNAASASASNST
Sequence of High affinity nerve growth factor receptor (P04629 whole entry): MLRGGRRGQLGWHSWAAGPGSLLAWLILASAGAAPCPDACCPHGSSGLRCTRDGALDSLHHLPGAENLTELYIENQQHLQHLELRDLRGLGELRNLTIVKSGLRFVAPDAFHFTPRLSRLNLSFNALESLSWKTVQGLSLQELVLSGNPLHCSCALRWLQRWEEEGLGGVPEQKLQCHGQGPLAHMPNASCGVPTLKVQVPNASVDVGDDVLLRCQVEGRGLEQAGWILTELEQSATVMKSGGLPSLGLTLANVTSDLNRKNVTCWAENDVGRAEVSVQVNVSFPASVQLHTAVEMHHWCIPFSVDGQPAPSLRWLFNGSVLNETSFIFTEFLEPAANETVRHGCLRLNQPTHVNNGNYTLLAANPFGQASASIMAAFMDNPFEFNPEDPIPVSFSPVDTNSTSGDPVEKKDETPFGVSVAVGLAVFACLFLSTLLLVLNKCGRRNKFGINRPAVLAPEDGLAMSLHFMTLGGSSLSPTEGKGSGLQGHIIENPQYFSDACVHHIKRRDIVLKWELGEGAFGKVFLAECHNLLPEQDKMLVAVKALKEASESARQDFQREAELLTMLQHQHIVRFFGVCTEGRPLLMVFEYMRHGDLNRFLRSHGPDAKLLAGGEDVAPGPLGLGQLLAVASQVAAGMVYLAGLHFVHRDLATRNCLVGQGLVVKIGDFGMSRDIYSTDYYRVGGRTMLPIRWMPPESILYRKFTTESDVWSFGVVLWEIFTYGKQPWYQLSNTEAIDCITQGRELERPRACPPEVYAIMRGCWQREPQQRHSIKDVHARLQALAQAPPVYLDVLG
Sequence of Mitogen-activated protein kinase kinase kinase kinase 4 (O95819 whole entry): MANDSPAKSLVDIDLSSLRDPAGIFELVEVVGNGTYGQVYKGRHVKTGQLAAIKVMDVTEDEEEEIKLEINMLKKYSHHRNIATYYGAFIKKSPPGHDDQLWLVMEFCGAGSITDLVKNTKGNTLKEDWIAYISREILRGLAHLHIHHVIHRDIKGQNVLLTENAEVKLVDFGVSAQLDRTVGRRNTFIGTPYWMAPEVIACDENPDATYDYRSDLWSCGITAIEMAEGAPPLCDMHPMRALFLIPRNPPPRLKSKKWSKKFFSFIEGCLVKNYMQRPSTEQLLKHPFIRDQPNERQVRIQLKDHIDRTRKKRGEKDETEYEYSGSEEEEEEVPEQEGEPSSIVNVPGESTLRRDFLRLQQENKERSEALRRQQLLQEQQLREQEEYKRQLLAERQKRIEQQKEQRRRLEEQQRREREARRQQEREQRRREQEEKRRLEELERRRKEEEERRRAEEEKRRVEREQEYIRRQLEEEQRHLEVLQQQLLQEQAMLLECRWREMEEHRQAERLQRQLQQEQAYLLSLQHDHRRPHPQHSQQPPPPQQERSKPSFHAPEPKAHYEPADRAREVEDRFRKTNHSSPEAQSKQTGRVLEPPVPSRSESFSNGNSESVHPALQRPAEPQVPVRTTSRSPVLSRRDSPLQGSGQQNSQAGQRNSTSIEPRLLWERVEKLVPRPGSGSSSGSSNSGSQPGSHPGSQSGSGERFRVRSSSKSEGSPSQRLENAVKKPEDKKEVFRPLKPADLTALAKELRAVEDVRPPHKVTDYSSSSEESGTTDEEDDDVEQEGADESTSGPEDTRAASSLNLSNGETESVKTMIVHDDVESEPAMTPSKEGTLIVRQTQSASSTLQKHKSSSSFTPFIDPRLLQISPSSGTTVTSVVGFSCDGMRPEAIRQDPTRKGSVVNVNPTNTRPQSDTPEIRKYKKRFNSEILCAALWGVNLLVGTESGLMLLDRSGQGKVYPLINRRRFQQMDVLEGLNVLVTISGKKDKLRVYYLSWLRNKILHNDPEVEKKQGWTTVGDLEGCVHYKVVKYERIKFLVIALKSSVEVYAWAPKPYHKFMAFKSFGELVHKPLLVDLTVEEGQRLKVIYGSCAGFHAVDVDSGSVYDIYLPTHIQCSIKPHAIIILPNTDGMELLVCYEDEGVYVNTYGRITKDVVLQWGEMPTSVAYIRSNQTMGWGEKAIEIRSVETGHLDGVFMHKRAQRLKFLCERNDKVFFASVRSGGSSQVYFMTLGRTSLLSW
Sequence of Myosin light chain kinase, smooth muscle (Q15746 whole entry): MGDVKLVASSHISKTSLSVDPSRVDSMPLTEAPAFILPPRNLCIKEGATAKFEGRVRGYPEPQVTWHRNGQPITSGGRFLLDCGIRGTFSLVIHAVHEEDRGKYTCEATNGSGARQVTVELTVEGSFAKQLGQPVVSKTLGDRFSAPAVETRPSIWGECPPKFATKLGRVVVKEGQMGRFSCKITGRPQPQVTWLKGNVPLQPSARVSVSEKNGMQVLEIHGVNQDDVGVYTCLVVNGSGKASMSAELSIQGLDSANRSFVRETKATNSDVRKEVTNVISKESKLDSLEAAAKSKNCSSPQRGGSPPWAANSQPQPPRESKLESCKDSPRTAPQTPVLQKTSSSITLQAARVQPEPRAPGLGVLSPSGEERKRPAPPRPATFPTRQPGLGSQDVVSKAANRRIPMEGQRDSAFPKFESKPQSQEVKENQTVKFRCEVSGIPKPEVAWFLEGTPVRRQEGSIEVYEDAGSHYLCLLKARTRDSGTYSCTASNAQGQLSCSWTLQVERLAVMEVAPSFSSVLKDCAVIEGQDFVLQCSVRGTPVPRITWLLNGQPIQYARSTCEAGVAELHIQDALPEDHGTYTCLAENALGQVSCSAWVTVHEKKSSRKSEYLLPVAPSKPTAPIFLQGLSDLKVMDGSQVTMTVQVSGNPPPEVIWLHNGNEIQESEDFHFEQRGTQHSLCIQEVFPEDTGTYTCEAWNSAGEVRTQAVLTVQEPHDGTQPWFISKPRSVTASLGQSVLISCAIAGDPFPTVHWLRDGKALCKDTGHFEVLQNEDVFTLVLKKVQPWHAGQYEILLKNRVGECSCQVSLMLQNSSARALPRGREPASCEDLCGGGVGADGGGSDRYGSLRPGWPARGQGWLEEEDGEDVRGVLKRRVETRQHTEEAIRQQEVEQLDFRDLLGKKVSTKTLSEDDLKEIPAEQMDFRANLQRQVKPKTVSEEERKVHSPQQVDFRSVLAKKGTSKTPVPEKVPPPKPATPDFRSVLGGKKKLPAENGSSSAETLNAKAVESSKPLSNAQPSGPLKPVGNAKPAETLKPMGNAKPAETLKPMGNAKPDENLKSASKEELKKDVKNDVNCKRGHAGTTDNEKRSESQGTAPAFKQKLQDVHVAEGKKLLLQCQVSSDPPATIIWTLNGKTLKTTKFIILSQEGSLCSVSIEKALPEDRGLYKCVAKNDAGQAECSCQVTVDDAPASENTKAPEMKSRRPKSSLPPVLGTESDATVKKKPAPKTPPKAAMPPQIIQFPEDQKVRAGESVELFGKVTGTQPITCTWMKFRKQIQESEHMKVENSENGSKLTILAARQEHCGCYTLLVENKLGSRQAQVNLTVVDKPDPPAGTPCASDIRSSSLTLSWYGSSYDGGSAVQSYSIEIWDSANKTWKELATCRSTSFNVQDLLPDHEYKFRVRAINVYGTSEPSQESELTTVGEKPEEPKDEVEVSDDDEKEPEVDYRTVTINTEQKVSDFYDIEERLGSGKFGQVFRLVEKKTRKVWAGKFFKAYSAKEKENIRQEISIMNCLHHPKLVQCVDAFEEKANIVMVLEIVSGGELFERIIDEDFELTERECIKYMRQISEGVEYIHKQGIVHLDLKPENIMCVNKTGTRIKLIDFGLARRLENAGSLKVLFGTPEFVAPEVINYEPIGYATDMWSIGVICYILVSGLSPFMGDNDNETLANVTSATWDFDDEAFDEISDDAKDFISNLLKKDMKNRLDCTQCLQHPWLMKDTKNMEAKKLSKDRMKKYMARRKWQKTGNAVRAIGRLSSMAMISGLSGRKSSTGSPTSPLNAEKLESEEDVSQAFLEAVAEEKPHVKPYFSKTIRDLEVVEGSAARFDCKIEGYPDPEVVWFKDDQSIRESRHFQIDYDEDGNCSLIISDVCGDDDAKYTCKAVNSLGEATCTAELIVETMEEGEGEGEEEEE
Sequence of TGF-beta receptor type-2 (P37173 whole entry): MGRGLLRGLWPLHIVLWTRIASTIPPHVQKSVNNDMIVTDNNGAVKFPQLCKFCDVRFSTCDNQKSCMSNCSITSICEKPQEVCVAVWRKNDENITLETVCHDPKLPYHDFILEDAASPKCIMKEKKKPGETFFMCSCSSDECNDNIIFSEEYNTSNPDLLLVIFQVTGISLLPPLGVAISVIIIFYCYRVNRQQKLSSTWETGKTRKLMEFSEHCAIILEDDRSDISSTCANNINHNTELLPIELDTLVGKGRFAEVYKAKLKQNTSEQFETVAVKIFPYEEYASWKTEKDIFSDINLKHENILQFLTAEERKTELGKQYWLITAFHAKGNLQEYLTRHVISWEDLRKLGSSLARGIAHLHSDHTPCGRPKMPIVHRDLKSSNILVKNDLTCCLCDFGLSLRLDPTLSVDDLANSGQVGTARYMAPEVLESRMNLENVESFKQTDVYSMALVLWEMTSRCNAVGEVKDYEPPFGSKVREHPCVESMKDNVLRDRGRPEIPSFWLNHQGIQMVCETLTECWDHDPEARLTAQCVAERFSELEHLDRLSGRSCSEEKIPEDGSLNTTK

SMILES	Kd [1] [µM]	Kd [2] [µM]	Kd [3] [µM]	Kd [4] [µM]	Kd [5] [µM]	Kd [6] [µM]	Kd [7] [µM]	Kd [8] [µM]	Kd [9] [µM]	Kd [10] [µM]	Kd [11] [µM]	Kd [12] [µM]
CCN1CCN(Cc2ccc(NC(=O)Nc3ccc(Oc4cc(NC)ncn4)cc3)cc2C(F)(F)F)CC1 [AST-487]	> 10											
COCC(=O)NC/C=C/c1ccc2ncnc(Nc3ccc(Oc4ccc(C)nc4)c(C)c3)c2c1 [CP-724714]		> 10	> 10	> 10	> 10	> 10	> 10	> 10	> 10	> 10	> 10	> 10
Nc1nc(Nc2ccc(S(N)(=O)=O)cc2)nn1C(=O)c1c(F)cccc1F [JNJ-7706621]	> 10	> 10			> 10	> 10	> 10		> 10		1.8	> 10
CCOc1cc2ncc(C#N)c(Nc3ccc(F)c(Cl)c3)c2cc1NC(=O)/C=C/CN(C)C [PELITINIB]		> 10		> 10	> 10		> 10	> 10		> 10	> 10	> 10
Oc1ccc(-c2nc(-c3ccncc3)c(-c3ccc(F)cc3)[nH]2)cc1 [SB-202190]	> 10	> 10	> 10	> 10	> 10	> 10	0.64	2.7	> 10	> 10	> 10	> 10
NC(=O)c1ccc(-c2nc(-c3ccc4c(c3)OCO4)c(-c3ccccn3)[nH]2)cc1 [SB-431542]	> 10	> 10	> 10	> 10		> 10	> 10	> 10	> 10	> 10	> 10	> 10
